These results are taken from patent publication US20260183276A1, “miRNA DYSREGULATION CORRECTION AS A STRATEGY TO TREAT HUNTINGTON'S DISEASE” (The Chinese University of Hong Kong, priority 2022, published 2026).

Assay [1] deals with EGFP-Htt1-550CAG89-expressing SK-N-MC cells. Put plainly: LDH cell death assay, EGFP-Htt1-550CAG89-expressing SK-N-MC cells. In kind it is cell-based. As for the experimental part: SK-N-MC cells (ATCC) were cultured in DMEM (GE Healthcare BioSciences) supplemented with 10% fetal bovine serum and 1% penicillin-streptomycin. Cells were maintained in a 37° C. humidified cell culture incubator supplemented with 5% CO2. Plasmid DNA and siRNA/synthetic miRNA transfection was performed using Lipofectamine 2000 (Thermo Fisher Scientific) and Lipofectamine RNAiMAX (Thermo Fisher Scientific), respectively.
The LDH assay on SK-N-MC cells were performed according to manufacturer's instructions (CytoTox 96 Non-Radioactive Cytotoxicity Assay Kit, Promega).

Assay [2] has as its system JNK phosphorylation and caspase 3 cleavage in EGFP-Htt1-550CAG89-expressing neurons. As to the kind of experiment: Western blotting, EGFP-Htt1-550CAG89-expressing primary cortical neurons. Type of assay: cell-based, mouse. The procedure: E16-embryos of C57BL6J wildtype mice were sacrificed to obtain the mouse primary cortical neurons as previously described (Peng et al., 2021). In brief, cortical lobes were dissected out in ice-cold PBS-glucose. Meninges were removed and cortices were digested in trypsin solution. Primary cortical neurons were cultured on poly-[…]-coated (0.05 mg/ml) glass coverslips in 24-well plates (50,000 cells per well) and maintained in a 37° C. humidified cell culture incubator supplemented with 5% CO2. Prior to transfection and drug treatment, neurons were cultured for 5 days. Mature primary neurons were transfected with DNA constructs together with Lipofectamine LTX and Plus Reagent (Thermo Fisher Scientific). Following the manufacturer's protocol, at 4 hours post-transfection culture medium was refreshed and 400 nM of BCH001 was added to the medium. Neurons were further incubated for 72 hours to allow recovery and ectopic expression. Proteins were extracted from SK-N-MC cells or mouse primary cortical neurons using SDS sample buffer. For protein extraction from mice, half of the brain was homogenized in protein lysis buffer (50 mM Tris-HCl, pH 7.6, 150 mM NaCl, 10% NP40, 5% sodium deoxycholate). All protein samples were boiled at 99° C. for 10 minutes, prior to Western blotting. […]
(In general: A western blot detects proteins with antibodies after separation by electrophoresis.)

With `CCOC(=O)c1cnc2ccc(OC(F)(F)F)cc2c1Nc1ccccc1C(=O)O` [BCH001], the EGFP-Htt1-550CAG89-induced cell death entry in assay [1] was “rescued”. In addition, in assay [2], the JNK phosphorylation entry is given as “attenuated” and the “caspase 3 cleavage” value is given as “attenuated”.
